EC50 data for 27 molecules are collected here from US10392347B2, “2,4-dihydroxy-nicotinamides as APJ agonists” (BRISTOL-MYERS SQUIBB COMPANY, priority 2015, dated 2019).

This test concerns the target T1, human APJ receptor (Homo sapiens, UniProt P35414).
T1 construct: expressed in transfected cells
T1 sequence (P35414 1-380): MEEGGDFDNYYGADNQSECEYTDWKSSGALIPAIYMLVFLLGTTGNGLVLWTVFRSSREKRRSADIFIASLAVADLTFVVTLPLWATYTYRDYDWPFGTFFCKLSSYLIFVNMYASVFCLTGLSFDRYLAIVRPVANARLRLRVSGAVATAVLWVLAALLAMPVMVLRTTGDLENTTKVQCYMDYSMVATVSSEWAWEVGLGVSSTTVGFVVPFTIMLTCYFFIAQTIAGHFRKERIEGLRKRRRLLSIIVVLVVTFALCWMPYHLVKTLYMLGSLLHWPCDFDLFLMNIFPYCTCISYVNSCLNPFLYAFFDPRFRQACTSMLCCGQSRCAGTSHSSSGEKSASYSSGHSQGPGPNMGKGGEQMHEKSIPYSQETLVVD
Nature of the test: Intracellular cAMP accumulation assay (APJ hcAMP, HTRF). The test is classed as cell-based. Particulars: HEK293 cells stably expressing human APJ. How it is done:
Intracellular cAMP Accumulation Assay
HEK293 cells stably expressing human APJ receptor were used to assess the activity of compounds. Cultured cells were detached and resuspended in the cAMP Homogeneous Time-Resolved Fluorescence (HTRF) assay buffer (Cisbio cat; #62AM4PEJ). […] Serial dilutions of a compound together with assay buffer containing […] and 2 μM forskolin were added to each well containing 5,000 cells and incubated for 30 minutes at room temperature. Subsequently, cAMP D2 reagent was added in the lysis buffer followed by the EuK antibody (Cisbio; cat #62AM4PEJ) and incubated for 60 min. The fluorescence emission ratio was measured using fluorometer. The intracellular cAMP concentrations (compound-stimulated inhibition of forskolin-mediated cAMP production) were calculated by extrapolation from a standard curve using known cAMP concentrations. The EC50 values were obtained by fitting the data to a sigmoidal concentration-response curve with variable slope.
The EC50 value of each compound is presented at the end of the example description.
The biological activity of the exemplified compounds of this invention determined by the assay described above is shown at the end of each example.

Setting [1] is: Table 1, forskolin-stimulated cAMP, read-out: APJ cAMP EC50.
Setting [2] is: Table 4, forskolin-stimulated cAMP, read-out: Human cAMP EC50.
[3] abbreviates: Table 5, forskolin-stimulated cAMP, read-out: Human cAMP EC50.
[4] abbreviates: APJ cAMP EC50 (nM), Table 1, forskolin-stimulated cAMP.
The mark [5] stands for this setting: Table 3, forskolin-stimulated cAMP, read-out: APJ cAMP EC50.

Like-named read-outs stand apart in the source and are kept apart here.

Usually EC50 stands for the concentration needed to bring the measured effect to its halfway point.

On to `CCOCc1nc(O)c(C(=O)N2CC[C@@H](c3ccccc3)C2)c(O)c1-c1c(OC)cccc1OC` [Example 25, 5-(2,6-dimethoxyphenyl)-6-(ethoxymethyl)-3-[(3S)-3-phenylpyrrolidine-1-carbonyl]pyridine-2,4-diol], for which the EC50 under setting [1] fell in the range of 10 to 100 nM.

As to `CCCCc1nc(O)c(C(=O)N(C)CCOc2ccccc2)c(O)c1-c1c(OC)cccc1OC` [Example 99, 6-butyl-5-(2,6-dimethoxyphenyl)-2,4-dihydroxy-N-methyl-N-(2-phenoxyethyl)pyridine-3-carboxamide], the EC50 under setting [2] lay in the range of 10 to 100 nM.

`CCCCc1nc(O)c(C(=O)N2CCN(C(=O)c3cccc(F)c3F)CC2)c(O)c1-c1c(OC)cccc1OC` [Example 119, 6-butyl-3-[4-(2,3-difluorobenzoyl)piperazine-1-carbonyl]-5-(2,6-dimethoxyphenyl)pyridine-2,4-diol]: the EC50 under setting [2] fell in the range of 0.01 to 10 nM.

As for `CCCCc1nc(O)c(C(=O)N2CCN(Cc3ccc(Cl)cc3)CC2)c(O)c1-c1c(OC)cccc1OC` [Example 31, 6-butyl-3-{4-[(4-chlorophenyl)methyl]piperazine-1-carbonyl}-5-(2,6-dimethoxyphenyl)pyridine-2,4-diol], the EC50 under setting [1] is 0.01 to 10 nM.

Take `CCOCc1nc(O)c(C(=O)N2CCN(Cc3cccc(Cl)c3Cl)CC2)c(O)c1-c1c(OC)cccc1OC` [Example 104, 3-{4-[(2,3-dichlorophenyl)methyl]piperazine-1-carbonyl}-5-(2,6-dimethoxyphenyl)-6-(ethoxymethyl)pyridine-2,4-diol]: under setting [2], the EC50 lay in the range of 0.01 to 10 nM.

Regarding `CCOCc1nc(O)c(C(=O)N2CCN(Cc3ccccc3F)CC2)c(O)c1-c1c(OC)cccc1OC` [Example 89, 5-(2,6-dimethoxyphenyl)-6-(ethoxymethyl)-3-{4-[(2-fluorophenyl)methyl]piperazine-1-carbonyl}pyridine-2,4-diol], the EC50 under setting [2] was in the range of 0.01 to 10 nM.

For the molecule `CCCCc1nc(O)c(C(=O)N2CC(NS(=O)(=O)c3cccc(F)c3F)C2)c(O)c1-c1c(OC)cccc1OC` [Example 118, N-{1-[6-butyl-5-(2,6-dimethoxyphenyl)-2,4-dihydroxypyridine-3-carbonyl]azetidin-3-yl}-2,3-difluorobenzene-1-sulfonamide], the concentration for a half-maximal effect (EC50) under setting [2] is 0.01 to 10 nM.

As to `COc1cccc(OC)c1-c1c(C2CCCC2)nc(O)c(C(=O)N2CCC(c3cccc(F)c3)C2)c1O` (stereo not drawn) [Example 125, 6-cyclopentyl-5-(2,6-dimethoxyphenyl)-3-[3-(3-fluorophenyl)pyrrolidine-1-carbonyl]pyridine-2,4-diol], the concentration for a half-maximal effect (EC50) under setting [3] lay within 10 to 100 nM.

As for `CCCCc1nc(O)c(C(=O)N2CCN(c3ccccn3)CC2)c(O)c1-c1c(OC)cccc1OC` [Example 59], under setting [1], the EC50 is 10 to 100 nM.

`CCOCc1nc(O)c(C(=O)N2CC[C@H](c3ccccc3)C2)c(O)c1-c1c(OC)cc(F)cc1OC` [Example 70]: the EC50 (read-out: Human APJ cAMP EC50 Potency range) is 10 to 100 nM.

Regarding `CCCCc1nc(O)c(C(=O)N2CCN(C(=O)c3ccc(Cl)cn3)CC2)c(O)c1-c1c(OC)cccc1OC` [Example 105, 6-butyl-3-[4-(5-chloropyridine-2-carbonyl)piperazine-1-carbonyl]-5-(2,6-dimethoxyphenyl)pyridine-2,4-diol], the EC50 under setting [2] lay in the range of 0.01 to 10 nM.

Consider `CCCCc1nc(O)c(C(=O)N2CCN(C(c3ccccc3)c3ccccc3)CC2)c(O)c1-c1c(OC)cccc1OC` [Example 16, 6-butyl-5-(2,6-dimethoxyphenyl)-3-[4-(diphenylmethyl)piperazine-1-carbonyl]pyridine-2,4-diol], for which the concentration giving a half-maximal response (EC50) under setting [1] fell in the range of 0.01 to 10 nM.

Under setting [4], `CCCCc1[nH]c(=O)c(C(=O)N(C)CCc2ccc(Cl)cc2)c(O)c1-c1c(OC)cccc1OC` [Example 27, 6-butyl-N-[2-(4-chlorophenyl)ethyl]-5-(2,6-dimethoxyphenyl)-2,4-dihydroxy-N-methylpyridine-3-carboxamide] came in with an EC50 of 10 to 100 nM.

Turning to `CCCCc1nc(O)c(C(=O)N2CCN(c3nnnn3-c3ccccc3)CC2)c(O)c1-c1c(OC)cccc1OC` [Example 52, 6-butyl-5-(2,6-dimethoxyphenyl)-3-[4-(1-phenyl-1H-1,2,3,4-tetrazol-5-yl)piperazine-1-carbonyl]pyridine-2,4-diol], under setting [1], the EC50 lay in the range of 0.01 to 10 nM.

Turning to `CCCCc1nc(O)c(C(=O)N2CC(c3cccc(Cl)c3)C2)c(O)c1-c1c(OC)cccc1OC` [Example 34, 6-butyl-3-[3-(3-chlorophenyl)azetidine-1-carbonyl]-5-(2,6-dimethoxyphenyl)pyridine-2,4-diol], the EC50 under setting [1] fell in the range of 0.01 to 10 nM.

Consider `CCOCc1nc(O)c(C(=O)N2CC[C@H](OCc3ccccc3)C2)c(O)c1-c1c(OC)cccc1OC` [Example 137, 3-[(3S)-3-(benzyloxy)pyrrolidine-1-carbonyl]-5-(2,6-dimethoxyphenyl)-6-(ethoxymethyl)pyridine-2,4-diol], for which the EC50 (Table 6, forskolin-stimulated cAMP, read-out: Human cAMP EC50) was in the range of 10 to 100 nM.

For `CCCCc1nc(O)c(C(=O)N2CCC(c3nc(-c4cc(C)c(OC)cc4Cl)c(C)s3)C2)c(O)c1-c1c(OC)cccc1OC` (racemic) [Example 9, 6-butyl-3-{3-[4-(2-chloro-4-methoxy-5-methylphenyl)-5-methyl-1,3-thiazol-2-yl]pyrrolidine-1-carbonyl}-5-(2,6-dimethoxyphenyl)pyridine-2,4-diol], for the setting “Table 2, forskolin-stimulated cAMP, read-out: APJ cAMP EC50”, the EC50 was in the range of 0.01 to 10 nM.

On to `CCCCc1nc(O)c(C(=O)N2CCN(Cc3cccc(F)c3F)CC2)c(O)c1-c1cc(OC)ccc1OC` [Example 110, 6-butyl-3-{4-[(2,3-difluorophenyl)methyl]piperazine-1-carbonyl}-5-(2,5-dimethoxyphenyl)pyridine-2,4-diol], for which the EC50 under setting [2] fell in the range of 0.01 to 10 nM.

Regarding `CCNCc1nc(O)c(C(=O)N2CCC(c3ccccc3F)C2)c(O)c1-c1c(OC)cccc1OC` (stereo not drawn) [Example 150, 5-(2,6-dimethoxyphenyl)-6-[(ethylamino)methyl]-3-[3-(2-fluorophenyl)pyrrolidine-1-carbonyl]pyridine-2,4-diol], where the note is “Table 8, forskolin-stimulated cAMP, read-out: Human cAMP EC50”, the half-maximal effective concentration (EC50) fell in the range of 10 to 100 nM.

Regarding `CCCCc1nc(O)c(C(=O)N2CCC(c3ncc(F)cc3F)C2)c(O)c1-c1c(OC)cccc1OC` (stereo not drawn) [Example 83, 6-butyl-3-[3-(3,5-difluoropyridin-2-yl)pyrrolidine-1-carbonyl]-5-(2,6-dimethoxyphenyl)pyridine-2,4-diol], the EC50 under setting [5] is 0.01 to 10 nM.

For `CCOCc1nc(O)c(C(=O)N2CCC(c3cccc(F)c3)C2)c(O)c1-c1c(OC)cccc1OC` (stereo not drawn) [Example 124, 5-(2,6-dimethoxyphenyl)-6-(ethoxymethyl)-3-[3-(3-fluorophenyl)pyrrolidine-1-carbonyl]pyridine-2,4-diol], under setting [3], the 50% effective concentration (EC50) lay in the range of 0.01 to 10 nM.

For the molecule `CCCCc1[nH]c(=O)c(C(=O)N2CC[C@@H](c3ccccc3)C2)c(O)c1-c1c(OC)cccc1OC` [Example 29, 6-butyl-5-(2,6-dimethoxyphenyl)-3-[(3S)-3-phenylpyrrolidine-1-carbonyl]pyridine-2,4-diol], the EC50 under setting [4] lay within 0.01 to 10 nM.

`CCOCc1nc(O)c(C(=O)N2CCC(c3ncc(F)cc3F)C2)c(O)c1-c1c(OC)cccc1OC` (stereo not drawn) [Example 85, 3-[3-(3,5-difluoropyridin-2-yl)pyrrolidine-1-carbonyl]-5-(2,6-dimethoxyphenyl)-6-(ethoxymethyl)pyridine-2,4-diol]: the EC50 under setting [5] lay in the range of 0.01 to 10 nM.

`CCOCc1nc(O)c(C(=O)N2CCC(c3ccc(Cl)cn3)C2)c(O)c1-c1c(OC)cccc1OC` (stereo not drawn) [Example 76, 3-[3-(5-chloropyridin-2-yl)pyrrolidine-1-carbonyl]-5-(2,6-dimethoxyphenyl)-6-(ethoxymethyl)pyridine-2,4-diol]: the EC50 under setting [5] is 0.01 to 10 nM.

Take `CCCCc1nc(O)c(C(=O)N2CCN(c3ccc(Cl)cc3)CC2)c(O)c1-c1c(OC)cccc1OC` [Example 68, 6-butyl-3-[4-(4-chlorophenyl)piperazine-1-carbonyl]-5-(2,6-dimethoxyphenyl)pyridine-2,4-diol]: under setting [1], the concentration giving a half-maximal response (EC50) was 10 to 100 nM.

Consider `CCCCc1nc(O)c(C(=O)N2CCC(Oc3ccccc3)CC2)c(O)c1-c1c(OC)cccc1OC` [Example 92, 6-butyl-5-(2,6-dimethoxyphenyl)-3-(4-phenoxypiperidine-1-carbonyl)pyridine-2,4-diol], for which, under setting [2], the 50% effective concentration (EC50) is 0.01 to 10 nM.

With `CCCCc1nc(O)c(C(=O)N(C)CCc2ccccn2)c(O)c1-c1c(OC)cccc1OC` [Example 15, 6-butyl-5-(2,6-dimethoxyphenyl)-2,4-dihydroxy-N-methyl-N-[2-(pyridin-2-yl)ethyl]pyridine-3-carboxamide], the EC50 under setting [1] fell in the range of 0.01 to 10 nM.
